# Assay results published in the supplement of paper PMC10307832.
# Legend:
# Assay in all cases: relative viability (nuclei count vs DMSO), 5 days (fraction); higher = more cells survive
# AZD6482 + Alpelisib = compound: Cc1cc([C@@H](C)Nc2ccccc2C(=O)O)c2nc(N3CCOCC3)cc(=O)n2c1 [AZD6482] + Cc1nc(NC(=O)N2CCC[C@H]2C(N)=O)sc1-c1ccnc(C(C)(C)C(F)(F)F)c1 [Alpelisib] (partner 2 µM)
# How it was run: (§1)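 Relative viability was taken as the ratio of nuclei in treated wells to nuclei in vehicle wells. Lung cancer cell lines in 1536-well plates received compounds by pin tool one day after seeding, either one drug alone or a fixed anchor-drug dose plus five library-drug doses (not always all listed) in √10 steps. Nuclei were counted on 4× images after 5 days of treatment, and values are medians of duplicate plates.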
# [1] = compound: COc1cc2nc(N3CCCN(C)CC3)nc(NC3CCN(Cc4ccccc4)CC3)c2cc1OC + CC(=O)c1c(C)c2cnc(Nc3ccc(N4CCNCC4)cn3)nc2n(C2CCCC2)c1=O [Palbociclib] (partner 0.5 µM)
# How it was run: as §1
# AZD6482 + Decitabine = compound: Cc1cc([C@@H](C)Nc2ccccc2C(=O)O)c2nc(N3CCOCC3)cc(=O)n2c1 [AZD6482] + Nc1ncn([C@H]2C[C@H](O)[C@@H](CO)O2)c(=O)n1 [Decitabine] (partner 2 µM)
# How it was run: as §1
# [2] = compound: COc1cc2nc(N3CCCN(C)CC3)nc(NC3CCN(Cc4ccccc4)CC3)c2cc1OC + Nc1nc2[nH]cc(CCc3ccc(C(=O)N[C@@H](CCC(=O)O)C(=O)O)cc3)c2c(=O)[nH]1 [Pemetrexed] (partner 0.2 µM)
# How it was run: as §1
Cell Line,relative viability (AZD6482 + Alpelisib; first compound 0.08 µM),relative viability (AZD6482 + Alpelisib; first compound 0.253 µM),relative viability (AZD6482 + Alpelisib; first compound 0.8 µM),relative viability (AZD6482 + Alpelisib; first compound 2.53 µM),relative viability (AZD6482 + Alpelisib; first compound 8 µM),relative viability ([1]; first compound 0.2 µM),relative viability ([1]; first compound 0.6325 µM),relative viability ([1]; first compound 2 µM),relative viability ([1]; first compound 6.325 µM),relative viability (AZD6482 + Decitabine; first compound 0.08 µM),relative viability (AZD6482 + Decitabine; first compound 0.253 µM),relative viability (AZD6482 + Decitabine; first compound 0.8 µM),relative viability (AZD6482 + Decitabine; first compound 2.53 µM),relative viability (AZD6482 + Decitabine; first compound 8 µM),relative viability ([2]; first compound 0.2 µM),relative viability ([2]; first compound 0.6325 µM),relative viability ([2]; first compound 2 µM),relative viability ([2]; first compound 6.325 µM)
NCI-H460,0.206,0.352,0.263,0.13,0.18,0.101,0.237,0.084,0.0622,0.445,0.38,0.618,0.452,0.395,0.063,0.0592,0.0662,0.0719
NCI-H661,0.656,0.454,0.486,,0.419,0.417,0.429,0.426,0.387,0.557,0.569,0.571,0.498,0.422,0.882,0.894,0.904,0.923
HCC-15,0.856,0.797,0.861,0.736,0.772,0.741,0.802,0.83,0.69,0.648,0.614,0.571,0.488,0.556,0.216,0.225,0.214,0.208
LCLC-103H,0.877,0.747,0.701,0.605,0.553,0.479,0.47,0.452,0.444,0.597,0.682,0.677,0.716,0.519,0.495,0.455,0.443,0.47
NCI-H441,0.65,0.834,0.592,0.532,0.66,0.191,0.219,0.236,0.207,0.254,0.198,0.295,,0.214,0.256,0.264,0.246,0.276
EPLC-272H,0.593,,0.554,0.436,0.577,0.326,0.322,0.316,0.346,0.313,0.325,0.321,0.216,0.341,0.335,0.403,0.397,0.365
